This series in a line: physchem. The settings on record: for solubility: water. The method, then:
The lipophilic matrix may consist of a single substance, e.g. a lipid, or of a mixture of substances, e.g. a mixture of lipids. In the case of mixtures, the DAB 10 water-solubility properties, the partition coefficients and the HLB values specified below are calculated from the arithmetic mean of the corresponding values of the substances and from their amounts in parts by weight. The substances used here must not be toxic.
The water-solubility of the active substance and the substance or substances forming the lipophilic matrix can be defined as described in DAD 10 German Pharmacopeia 10th ed. with 3rd suppl. 1994, published by Deutscher Apothekerverlag [=German Pharmacologic Publishing House], Stuttgart and by Govi Verlag, Frankfurt am Main, 2nd suppl. 1993, see Section IV “Allgemeine Vorschriften” [=General Methods] on pages 5 and 6, entitled “Löslichkeit und Lösungsmittell” [=Solubility and Solvents]; see also Ph. Eur. 4.07, 2004). The solubility is given here by the number of parts by volume of a solvent needed to dissolve 1 part by weight of the substance, such as a drug. “Low solubility” applies to substances that need 30-100 parts by volume of solvent to dissolve 1 part by weight of the substance or drug in question, while the terms “very low solubility”, “sparingly soluble” and “difficultly soluble” apply to substances that need 100-1000 parts by volume of a solvent to dissolve 1 part by weight of the substance or drug in question.

Structures are written as SMILES. Values after ≈ are worked out from the molar mass of the structure shown.

Consider `NC(=O)N1c2ccccc2CC(=O)c2ccccc21` [Oxcarbazepine], for which the “Water solubility according to DAB 10: parts of water needed to dissolve 1 part of the active substance” value is reported as “at least 10,000 parts of water” and the solubility came to 100 µg/mL (≈ 396 µM).
Taken in the same sequence, the figures for `CN(CCOc1ccc(CC2SC(=O)NC2=O)cc1)c1ccccn1` (stereo not shown) [Rosiglitazone] were “at least 1000 parts of water” and 1000 µg/mL (≈ 2800 µM).

Source of the values: patent US8273375B2, “Multiparticle pharmaceutical dosage form for a low-soluble active substances and method for producing said pharmaceutical dosage form” (Evonik Roehm GmbH, priority 2004, dated 2012).
